# Test results as given in patent US20100267712A1, “ISOINDOLINE COMPOUNDS FOR THE TREATMENT OF SPINAL MUSCULAR ATROPHY AND OTHER USES” (The United States of America, as represented by the …, priority 2007, published 2010).
# Tested on: SMN2-linked luciferase-reporter gene construct
# Assay: SMN Splice Reporter Assay (SMN2-linked luciferase reporter)
# Format: cell-based
# Details: for EC50: cervical carcinoma cell lines, SMN2 splice luciferase reporter; for Fold Increase: fold-increase of luciferase over baseline reading of transformed cells without any test compound
# Excerpt: As previously discussed, SMN1 is the gene deleted in SMA patients; the SMN2 gene remains intact in both SMA and normal patients. Therefore, SMN2 provides a potential means of increasing SMN production in SMA patients and is, thus, a target for developing SMA treatments. SMN2 is identical to SMN1 with the exception of a single base pair change that results in reduced expression of the gene. The reduction is based on the creation of an alternatively spliced RNA that produces an unstable protein carrying a deletion of exon 7. Both full length SMN and exon 7 deleted SMN are produced by the SMN2 gene via alternative RNA splicing, but the major product is the unstable deleted form.
# Cervical carcinoma cell lines were transformed with a SMN2-linked luciferase-reporter gene construct. The reporter is designed to detect shifts in the alternative splicing of SMN2 sequences. In particular, the reporter is constructed as a fusion of the alternatively spliced sequences of the SMN2 gene and the luciferase gene. Luciferase sequences are in the correct translational reading frame only when the SMN2 sequences are spliced according to the normal SMN1 mechanism (e.g., splicing to include exon 7), which allows for translation of the stable SMN protein. Compounds were tested in the assay by administering the compound to the cell line and detecting an increase in the luciferase activity. The assay is described in greater detail in Zhang et al., Gene Ther., 8: 1532-8 (2001). Compounds were administered as described in Lunn et al, Chem. & Biol, 11: 1489-1493 (2004).
# The results are reported as a fold-increase over a baseline reading of transformed cells without any test compound. The EC50 value also is reported in Table 1 for some exemplary compounds of the invention.
Structure (SMILES),EC50 [nM],Fold Increase
Cn1ccc2cc(N3Cc4cccc(Cl)c4C3=O)ccc21 [Example 120793],361,1.395
CCCc1ccc2c(c1)C(=O)N(c1ccc3ccn(C)c3c1)C2 [Example 124428],151,1.692
COc1ccc2c(c1)C(=O)N(c1ccc3c(c1)CCC3)C2 [Example 116241],98,1.512
COc1ccc2c(c1)C(=O)N(c1ccc3c(c1)cc(C(=O)N1CCCC1)n3C)C2 [Example 123935],,1.124
CC(=O)Nc1cccc2c1CN(c1ccc3c(ccn3C)c1)C2=O [Example 121074],,1.078
CC(=O)Nc1ccc2c(c1)CN(c1ccc3ccn(C)c3c1)C2=O [Example 121506],1040,1.488
COc1ccc2c(c1)C(=O)N(c1ccc3c(ccn3C)n1)C2 [Example 121263],161,1.39
COc1ccc2c(c1)C(=O)N(c1ccc3c(C)ccnc3c1)C2 [Example 124038],26,1.509
CCc1ccc2c(c1)C(=O)N(c1ccc3ccn(C)c3c1)C2 [Example 124169],152,1.673
O=C1c2cc(OC(F)F)ccc2CN1c1ccc2c(c1)CCC2 [Example 119337],157,1.66
Cn1ccc2ccc(N3Cc4ccc(OC5CCCC5)cc4C3=O)cc21 [Example 124860],135,1.582
COc1ccc2c(c1)C(=O)N(c1ccc3[nH]c(=O)[nH]c3c1)C2 [Example 120433],977,1.296
O=C1c2cc(N3CCCC3)ccc2CN1c1ccc2ncccc2c1 [Example 124770],24,1.948
COc1ccc2c(c1)C(=O)N(c1ccc3ncn(C)c3c1)C2 [Example 120598],183,1.552
CC(C)n1ccc2cc(N3Cc4ccc(N5CCCC5)cc4C3=O)ccc21 [Example 125384],,1.091
CC(C)(C)OC(=O)Cc1ccc(N2Cc3ccccc3C2=O)nc1 [Example 112719],6580,1.324
Cn1ccc2cc(N3Cc4ccc(O)cc4C3=O)ccc21 [Example 121510],159,1.542
COc1cccc2c1C(=O)N(c1ccc3ccn(C)c3c1)C2 [Example 120124],,1.17
COc1ccc2c(c1)C(=O)N(c1ccc(C(C)C)nc1)C2 [Example 119655],491,1.372
Cc1cc2cc(N3Cc4ccc(O)cc4C3=O)ccc2n1C [Example 123010],302,1.336
Cc1ccc2c(c1)C(=O)N(c1ccc3c(ccn3C)c1)C2 [Example 121507],34,1.411
COc1cccc2c1CN(c1ccc3ncccc3c1)C2=O [Example 120956],1250,1.329
Cn1ccc2cc(N3Cc4ccc(-c5ccccc5)cc4C3=O)ccc21 [Example 120288],408,1.364

Structure (SMILES),EC50 [nM],Fold Increase
Cn1ccc2cc(N3Cc4cccc(Br)c4C3=O)ccc21 [Example 120280],455,1.527
CC(C)n1ccc2cc(N3Cc4ccc(N(C)C)cc4C3=O)ccc21 [Example 125271],22,1.285
COc1ccc2c(c1)C(=O)N(c1ccc3c(ccn3C(C)=O)c1)C2 [Example 121076],49,1.295
CC(=O)Nc1ccc2c(c1)C(=O)N(c1ccc3c(ccn3C(C)C)c1)C2 [Example 126111],63,1.34
Cn1ccc2ccc(N3Cc4ccc(O)cc4C3=O)cc21 [Example 124039],520,1.893
COc1ccc2c(c1)C(=O)N(c1ccc3sccc3c1)C2 [Example 119519],31,1.666
Cc1cc2cc(N3Cc4ccc(N5CCCC5)cc4C3=O)ccc2n1C(C)C [Example 125603],,0.995
COc1ccc2c(c1)C(=O)N(c1ccc3sc(C)c(C)c3c1)C2 [Example 123590],128,1.405
Cc1ccc2c(c1)C(=O)N(c1ccc3ccn(C)c3c1)C2 [Example 121504],422,1.742
CCCc1ccc2c(c1)C(=O)N(c1ccc3sccc3c1)C2 [Example 122819],35,1.547
Cn1ccc2ccc(N3Cc4cccc(Cl)c4C3=O)cc21 [Example 120792],238,1.642
Cn1ccc2ccc(N3Cc4cc(Br)ccc4C3=O)cc21 [Example 120118],453,1.893
Cn1ccc2cc(N3Cc4c(Cl)cccc4C3=O)ccc21 [Example 120786],679,1.376
Cn1ccc2cc(N3Cc4ccc(OC5CCCC5)cc4C3=O)ccc21 [Example 121929],83,1.316
COc1ccc2c(c1)C(=O)N(c1ccc3nccc(N(C)C)c3c1)C2 [Example 122820],,1.066
COc1ccc2c(c1)C(=O)N(c1ccc3sc(C)nc3c1)C2 [Example 120593],14,1.322
COc1cccc2c1CN(c1ccc3ccn(C)c3c1)C2=O [Example 120123],1100,1.966
CCc1cc2cc(N3Cc4ccc(OC)cc4C3=O)ccc2n1C [Example 124327],560,1.361
CCCc1ccc2c(c1)C(=O)N(c1ccc3c(c1)cc(C)n3C(C)C)C2 [Example 125601],,1.027
COc1ccc2c(c1)C(=O)N(c1cnc3c(ccn3C)c1)C2 [Example 121079],42,1.385
COc1ccc2c(c1)C(=O)N(c1ccc3ccc(O)nc3c1)C2 [Example 124170],,1.102
Cc1cc2cc(N3Cc4ccc(OC(F)F)cc4C3=O)ccc2n1C [Example 123204],374,1.361
Cn1ccc2ccc(N3Cc4cccc(Br)c4C3=O)cc21 [Example 120281],397,1.788

Structure (SMILES),EC50 [nM],Fold Increase
Cn1ccc2ccc(N3Cc4ccc(-c5cncnc5)cc4C3=O)cc21 [Example 122433],1070,1.333
O=C(O)C1CCc2cc(N3Cc4ccccc4C3=O)ccc21 (stereo not shown) [Example 113488],,1.24
Cc1ccc(N2Cc3cc4c(cc3C2=O)OCCO4)cn1 [Example 118554],708,1.364
COc1ccc2c(c1)C(=O)N(c1ccc(C)cn1)C2 [Example 118553],166,1.308
Cn1ccc2cc(N3Cc4ccc(NC=O)cc4C3=O)ccc21 [Example 125096],44,1.371
COc1ccc2c(c1)C(=O)N(c1ccc3nccc(O)c3c1)C2 [Example 121645],,1.093
COc1ccc2c(c1)C(=O)N(c1ccc3nc(Cl)ccc3c1)C2 [Example 123206],119,1.531
O=C1c2cc(OC(F)F)ccc2CN1c1ccc2sccc2c1 [Example 121644],115,1.801
Cc1cc2ccc(N3Cc4ccc(Cl)cc4C3=O)cc2n1C [Example 124861],,1.268
COc1ccc2c(c1)C(=O)N(c1ccc3c(N(C)C)ccnc3c1)C2 [Example 124037],5970,1.377
Cn1ccc2ccc(N3Cc4ccc(Cl)cc4C3=O)cc21 [Example 120950],984,1.482
O=C1c2cc(Br)ccc2CN1c1ccc2sccc2c1 [Example 122558],94,1.469
Cn1ccc2ccc(N3Cc4ccc(NS(C)(=O)=O)cc4C3=O)cc21 [Example 124977],,1.061
COc1ccc2c(c1)C(=O)N(c1ccc3c(c1)n(C)c(=O)n3C)C2 [Example 120432],830,1.234
COc1ccc2c(c1)C(=O)N(c1ccc3nc(OC)ncc3c1)C2 [Example 122432],1140,1.32
CCCc1ccc2c(c1)C(=O)N(c1ccc3c(ccn3C(C)C)c1)C2 [Example 125386],,1.037
COc1ccc2c(c1)C(=O)N(c1ccc3ccn(CC#N)c3c1)C2 [Example 120603],2770,1.199
CC(=O)Nc1cccc2c1C(=O)N(c1ccc3ccn(C)c3c1)C2 [Example 121082],825,1.496
CCCCOc1ccc2c(c1)C(=O)N(c1ccc3sccc3c1)C2 [Example 122552],,1.202
COc1ccc2c(c1)C(=O)N(c1ccc3c(c1)OCO3)C2 [Example 116360],,1.282
Cc1ccc2c(c1)CN(c1ccc3c(ccn3C)c1)C2=O [Example 120780],,1.344
